PubChem BioAssay AID1963847 (Molecular Pharmacology Branch, DTP, NCI, 2024)

Test system: 415267-285-R-J2-PDC complex spheroid viability
Experiment: Anticancer human tumor 415267-285-R-J2-PDC patient-derived breast carcinoma cell line growth inhibition [POLQ]
Settings: for IC50: curve of first compound; for viability, T/C: stronger effect = lower value
In short: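 Complex spheroid viability model combining PDC tumour cells with endothelial (HUVEC) and MSC stromal cells. Novobiocin, ART-558 or RP6685 were tested singly and in combination with standard and investigational anticancer drugs. Each was titrated in half-log steps from near clinical Cmax, or from 10 microM where Cmax was unknown.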

[1] = second compound 0.0316 µM, first compound 0.0316 µM
[2] = second compound 0.0316 µM, first compound 0.1 µM
[3] = second compound 0.0316 µM, first compound 0.316 µM
[4] = second compound 0.0316 µM, first compound 1 µM
[5] = second compound 0.0316 µM, first compound 3.16 µM
[6] = second compound 0.0316 µM, first compound 10 µM
[7] = second compound 0.1 µM, first compound 0.0316 µM
[8] = second compound 0.1 µM, first compound 0.1 µM
[9] = second compound 0.1 µM, first compound 0.316 µM
[10] = second compound 0.1 µM, first compound 1 µM
[11] = second compound 0.1 µM, first compound 3.16 µM
[12] = second compound 0.1 µM, first compound 10 µM
[13] = second compound 0.316 µM, first compound 0.0316 µM
[14] = second compound 0.316 µM, first compound 0.1 µM
[15] = second compound 0.316 µM, first compound 0.316 µM
[16] = second compound 0.316 µM, first compound 1 µM
[17] = second compound 0.316 µM, first compound 3.16 µM
[18] = second compound 0.316 µM, first compound 10 µM
[19] = second compound 1 µM, first compound 0.0316 µM
[20] = second compound 1 µM, first compound 0.1 µM
[21] = second compound 1 µM, first compound 0.316 µM
[22] = second compound 1 µM, first compound 1 µM
[23] = second compound 1 µM, first compound 3.16 µM
[24] = second compound 1 µM, first compound 10 µM
[25] = second compound 3.16 µM, first compound 0.0316 µM
[26] = second compound 3.16 µM, first compound 0.1 µM
[27] = second compound 3.16 µM, first compound 0.316 µM
[28] = second compound 3.16 µM, first compound 1 µM
[29] = second compound 3.16 µM, first compound 3.16 µM
[30] = second compound 3.16 µM, first compound 10 µM
[31] = second compound 10 µM, first compound 0.0316 µM
[32] = second compound 10 µM, first compound 0.1 µM
[33] = second compound 10 µM, first compound 0.316 µM
[34] = second compound 10 µM, first compound 1 µM
[35] = second compound 10 µM, first compound 3.16 µM
[36] = second compound 10 µM, first compound 10 µM
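Also: spheroids exposed to compounds for one week before readout.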
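For viability, T/C in this document: luminescence used as stand-in measure of viable cells; 100% = DMSO vehicle control viability.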

COc1cc(C2c3cc4c(cc3C(OC3OC5COC(C)OC5C(O)C3O)C3COC(=O)C23)OCO4)cc(OC)c1O (centres undefined) + Nc1ccc(C#CCN(C(=O)Cc2ncc(C(F)(F)F)cc2C(F)(F)F)c2ccc(F)cc2)nn1
IC50 (second compound 0.0316 µM): 193 nM | IC50 (second compound 0.1 µM): 193 nM | IC50 (second compound 0.316 µM): 194 nM | IC50 (second compound 1 µM): 169 nM | IC50 (second compound 3.16 µM): 175 nM | IC50 (second compound 10 µM): 158 nM | viability, T/C [1]: 93.4% | viability, T/C [2]: 91.5% | viability, T/C [3]: 19% | viability, T/C [4]: 6.3% | viability, T/C [5]: 4.79% | viability, T/C [6]: 4.39% | viability, T/C [7]: 106% | viability, T/C [8]: 102% | viability, T/C [9]: 11.6% | viability, T/C [10]: 6.09% | viability, T/C [11]: 4.34% | viability, T/C [12]: 4.16% | viability, T/C [13]: 107% | viability, T/C [14]: 97.8% | viability, T/C [15]: 14.4% | viability, T/C [16]: 6.8% | viability, T/C [17]: 5.09% | viability, T/C [18]: 4.49% | viability, T/C [19]: 106% | viability, T/C [20]: 79.4% | viability, T/C [21]: 15% | viability, T/C [22]: 6.3% | viability, T/C [23]: 4.91% | viability, T/C [24]: 4.43% | viability, T/C [25]: 119% | viability, T/C [26]: 84.3% | viability, T/C [27]: 13.4% | viability, T/C [28]: 6.83% | viability, T/C [29]: 4.94% | viability, T/C [30]: 4.27% | viability, T/C [31]: 103% | viability, T/C [32]: 72.5% | viability, T/C [33]: 16.2% | viability, T/C [34]: 6.36% | viability, T/C [35]: 4.59% | viability, T/C [36]: 4.33%

COc1cc2cc(C(=O)CCC(=O)O)sc2cc1OC + COC1C(OC(N)=O)C(O)C(Oc2ccc3c(O)c(NC(=O)c4ccc(O)c(CC=C(C)C)c4)c(=O)oc3c2C)OC1(C)C
IC50 (second compound 0.0316 µM): > 10000 nM | IC50 (second compound 0.1 µM): > 10000 nM | IC50 (second compound 0.316 µM): > 10000 nM | IC50 (second compound 1 µM): > 10000 nM | IC50 (second compound 3.16 µM): > 10000 nM | IC50 (second compound 10 µM): > 10000 nM | viability, T/C [1]: 99.7% | viability, T/C [2]: 104% | viability, T/C [3]: 101% | viability, T/C [4]: 104% | viability, T/C [5]: 103% | viability, T/C [6]: 102% | viability, T/C [7]: 102% | viability, T/C [8]: 106% | viability, T/C [9]: 97.7% | viability, T/C [10]: 107% | viability, T/C [11]: 102% | viability, T/C [12]: 109% | viability, T/C [13]: 107% | viability, T/C [14]: 97.3% | viability, T/C [15]: 101% | viability, T/C [16]: 98.6% | viability, T/C [17]: 117% | viability, T/C [18]: 105% | viability, T/C [19]: 98.7% | viability, T/C [20]: 111% | viability, T/C [21]: 109% | viability, T/C [22]: 107% | viability, T/C [23]: 104% | viability, T/C [24]: 106% | viability, T/C [25]: 96.1% | viability, T/C [26]: 105% | viability, T/C [27]: 101% | viability, T/C [28]: 113% | viability, T/C [29]: 96% | viability, T/C [30]: 98.1% | viability, T/C [31]: 101% | viability, T/C [32]: 109% | viability, T/C [33]: 102% | viability, T/C [34]: 102% | viability, T/C [35]: 96.7% | viability, T/C [36]: 104%
